Reference: paper PMC7782499, “Progerinin, an optimized progerin-lamin A binding inhibitor, ameliorates premature senescence phenotypes of Hutchinson-Gilford progeria syndrome” (Communications Biology, 2021)
Several values for one entry are separate records, joined by “and”; a condition that tells them apart may be missing. Identical values can stand only once.

What was measured:
Plasma stability, rat = type: in vitro ADME
Experimental: For PK analysis, 5 mg/kg of JH4 in 10% DMSO, 5% […] solution were intravenously injected and 10 mg/kg of JH4 in 10% NMP and 90% PEG400 solution were orally delivered. At pre-set time-points, blood concentration of JH4 was determined by LC-MS/MS analysis[22],[23]. Other chemicals were also tested using similar protocol. In vitro ADME studies (plasma protein binding, CYP inhibition, microsomal stability, plasma stability, and hERG inhibition) were performed by New Drug Development Center (Daegu, Korea) using standard protocols[24],[25].

Lmna G609G/G609G mouse [1] = experiment: Body weight of Lmna G609G/G609G mice (ratio, week 4 = 1); type: in vivo; conditions: for body weight: IP injection
Description: Fig. 3 In vivo favorable effect of SLC-D011. A Gross morphology of Lmna^G609G/G609G mice (10 weeks old) was ameliorated after injection with SLC-D011. At the same age, the experimental group (D011) of mice were larger than vehicle-injected control (Con) subjects regardless of gender. B, C SLC-D011 increases body weight B and extends life span C of Lmna^G609G/G609G progeria model mouse (Con: n = 8; SLC-D011: n = 8). Compared with 14.8 weeks of average (ave) life span with maximum (max) life span of 15.5 weeks, 20 mg/kg of intraperitoneal (i.p) injection (twice a week) of SLC-D011 could extend the life span upto 19 weeks (max = 21 weeks). Lmna^G609G/G609G mice were injected with SLC-D011 from age of 5-week old, *p < 0.05. D Gross morphology of SLC-D011 injected Lmna^G609G/+ mouse. […] E SLC-D011 increases body weights of Lmna^G609G/+ mice (Con: n = 10; SLC-D011: n = 11), *p < 0.05. F Favorable effect of SLC-D011 on life span of Lmna^G609G/+ mice. Compared with vehicle-injected control group (ave = 46.7 weeks and max = 48 weeks), SLC-D011 treatment obviously extended the average life span to 63 weeks (max = 64 weeks). The injection was started from 32 weeks old, **p < 0.001. “Con” means vehicle (a solvent composed of DMSO and PBS)-injected mouse group. TEXT PRINTED IN THE PICTURE: (C) D011: Kaplan-Meier survival curve in Lmna^G609G/G609G: Ave=19; Kaplan-Meier survival curve in Lmna^G609G/G609G: Max=21 | (F) D011: Kaplan-Meier survival curve in Lmna^G609G/+: Ave=63; Kaplan-Meier survival curve in Lmna^G609G/+: Max=64 DOUBTS OF THE COPYIST ABOUT THIS PICTURE: Panels C and F: the Ave/Max labels are not printed with a group name. They are assigned to D011 (solid curve) or Con (dashed curve) only by their position beside the curves. / Panel C Ave=14.8, Max=15.5 and panel F Ave=46.7, Max=48 stand beside the dashed Con curve. They are left out because Con is the control group, not a substance. / No unit is printed with the Ave/Max values. Only the axis reads Age (weeks).
Fig. 4 Oral administration of SLC-D011 suppresses premature aging features. A Gross morphology of SLC-D011-treated (D011) mice at 8 weeks old. Body size of treated mouse was apparently larger than that of the untreated control (Con) mouse. B Oral administration of SLC-D011 increases body weights of Lmna^G609G/G609G mice. Compared with untreated control group, body weight of treated mouse was increased by ~35%, *p < 0.05. C Oral administration of SLC-D011 extends the life span of Lmna^G609G/G609G mouse. SLC-D011 in monoolein-based solution was treated by oral gavage (50 mg/kg, daily) from 5 weeks old. […] E Grip test of Lmna^G609G/+ mice at 41-week-old was performed after administration of SLC-D011 for 6 weeks. The test was repeated 10 times for each mouse (n > 4), **p < 0.001. Data are presented as mean ± SD. F Electrocardiographic analysis of Lmna^G609G/+ mice (untreated: n = 4; SLC-D011: n = 4) and Lmna^+/+ mice (n = 3) after treatment with SLC-D011 for 6 weeks (unpaired t test). Heart rate is shown as beats per minute (bpm). G Dental abnormalities in Lmna^G609G/+ mice (untreated: n = 4; SLC-D011: n = 5) and Lmna^+/+ mice (n = 4). […] Lower incisors of Lmna^G609G transgenic mice grow toward the palate because of malocclusion. Oral administration of SLC-D011 for 6 weeks alleviates dental abnormalities. H Anti-aging effects of single treatment of SLC-D011 or lonafarnib were measured in HGPS patients-derived cells (AG11513, AG03199, AG11498, and AG03198, Coriell Cell Repositories). Single treatment of SLC-D011, compared to lonafarnib, reduced the expression of progerin but induced the expression of H3K9me3 and cyclin B1 in HGPS cells more effectively. HGPS patients-derived cells were treated with SLC-D011 (500 nM) or lonafarnib (500 nM) for 3 days. I Scheme of interaction between lamin A and progerin. SLC-D011 interrupts the interaction between lamin A and progerin through direct binding to the C-terminal region of progerin. […]

Lmna G609G/G609G mouse [2] = test system: Lmna G609G/G609G mouse; design: method as in PMID 27617860; conditions: intraperitoneal injection; cited from earlier work

## CC1(C)Oc2cc3oc(=O)ccc3cc2C[C@@H]1OC/C=C/c1ccccc1 [SLC-D011]
Plasma stability, rat; 30min
  remaining at 0.5 h: 83.6%
Plasma stability, rat; 120min
  remaining at 2 h: 75.1%
Lmna G609G/G609G mouse [1]; after week 5
  body weight: 1.167 and 1.25 and 1.182 and 1
Lmna G609G/G609G mouse [1]; after week 7
  body weight: 1.333 and 1.417 and 1.273 and 1.077
Lmna G609G/G609G mouse [1]; after week 8
  body weight: 1.5 and 1.25 and 1.273 and 1 and 1.462
Lmna G609G/G609G mouse [1]; after week 9
  body weight: 1.417 and 1.25 and 1.273 and 1 and 1.385
Lmna G609G/G609G mouse [1]; after week 10
  body weight: 1.333 and 1.167 and 1.182 and 1
Lmna G609G/G609G mouse [1]; after week 13
  body weight: 1.167 and 0.8333 and 1.091 and 0.8462
Lmna G609G/G609G mouse [1]; after week 15
  body weight: 1 and 0.6667 and 0.9231
Lmna G609G/G609G mouse [1]; after week 16
  body weight: 1 and 0.8182 and 0.8462
Lmna G609G/G609G mouse [1]; after week 17
  body weight: 0.8333 and 0.8182 and 0.7692
Lmna G609G/G609G mouse [1]; column after week 4
  body weight: 1.083 and 1
Lmna G609G/G609G mouse [1]; column after week 6
  body weight: 1.25 and 1.333 and 1.273 and 1.077
Lmna G609G/G609G mouse [1]; column after week 11
  body weight: 1.333 and 1.083 and 1.182 and 1
Lmna G609G/G609G mouse [1]; column after week 12
  body weight: 1.25 and 0.9167 and 1.182 and 0.9231
Lmna G609G/G609G mouse [1]; column after week 14
  body weight: 1.083 and 0.75 and 1.091 and 0.9231
Lmna G609G/G609G mouse [1]; column after week 18
  body weight: 0.8333 and 0.7692
Lmna G609G/G609G mouse [1]; column after week 19
  body weight: 0.75
Lmna G609G/G609G mouse [1]; week 5
  body weight: 1.167 and 1.091 and 1
Lmna G609G/G609G mouse [1]; week 6
  body weight: 1.167 and 1.333 and 1.273 and 1
Lmna G609G/G609G mouse [1]; week 7
  body weight: 1.333 and 1.417 and 1.273 and 1
Lmna G609G/G609G mouse [1]; week 8
  body weight: 1.417 and 1.273 and 1.077 and 1.385
Lmna G609G/G609G mouse [1]; week 10
  body weight: 1.417 and 1.167 and 1.273 and 1 and 1.385
Lmna G609G/G609G mouse [1]; week 11
  body weight: 1.333 and 1.083 and 1.182 and 1.077
Lmna G609G/G609G mouse [1]; week 12
  body weight: 1.25 and 1 and 1.182 and 0.9231
Lmna G609G/G609G mouse [1]; week 13
  body weight: 1.25 and 0.8333 and 1.182 and 0.9231
Lmna G609G/G609G mouse [1]; week 15
  body weight: 1.083 and 0.75 and 1.091 and 0.8462
Lmna G609G/G609G mouse [1]; week 16
  body weight: 1 and 0.8462
Lmna G609G/G609G mouse [1]; week 17
  body weight: 0.8333 and 0.8182 and 0.8462
Lmna G609G/G609G mouse [1]; week 18
  body weight: 0.8333 and 0.7692
Lmna G609G/G609G mouse [1]; week 19
  body weight: 0.8333
Lmna G609G/G609G mouse [1]; oral administration
  Increase of body weight compared with untreated control: ~ 35%

## CC1(C)Oc2cc3oc(=O)ccc3cc2CC1OC(=O)C=Cc1cccnc1 (stereo not shown) [JH4]
Lmna G609G/G609G mouse [2]
  Extension of life span: ~ 4 weeks
  Increase of life span: ~ 25%
